Laboratory results published in patent US20200276168A1, “Sustained Release Pharmaceutical Compositions and Methods of Use” (Qrono, Inc., priority 2015, published 2020).

Test system: head and neck squamous cell carcinoma cells
Assay: head and neck squamous cell carcinoma xenograft model, tumor volume monitored for 4 weeks
Assay type: in vivo, mice
Conditions: payload equal to low dose sustained release formulation (210 nanograms), FIG. 2
Description: Athymic mice were injected subcutaneously with head and neck squamous cell carcinoma cells to form tumors. Mice were divided into groups and treated with a sustained release composition according to the present invention, QR206, at a high dose (2.1 micrograms) a low dose (210 nanograms), or with a low dose of unformulated drug (epothilone D, 210 nanograms). Tumor volume was monitored for 4 weeks.

Q: For `C/C1=C/C[C@@H](/C(C)=C/c2csc(C)n2)OC(=O)C[C@H](O)C(C)(C)C(=O)[C@H](C)[C@@H](O)[C@@H](C)CCC1` [EpoD, Epothilone D], which “tumor growth rate of vehicle only control compared with the unformulated drug” value is on record?
A: higher tumor growth rate
